# Measured values published in patent US8592419B2, “Ceramides and apoptosis-signaling ligand” (MUSC Foundation for Research Development, priority 2004, dated 2013).
# Columns and labels:
# Format in all cases: cell-based, human
# [1] = test system: PPC-1/pcDNA3 cells; experiment: MTS cell viability assay in PPC-1/pcDNA3 cells with kinase inhibitors; conditions: 20 μM SB-203580, 40 μM SP600125, LCL204 8 hours
# Description: MTS cytotoxicity assays for LCL204 treatments. Cell viability was determined using the CellTiter 96 AQueous One Solution Cell Proliferation Assay (Promega; Madison, Wis., USA). 1×10^4 cells per well were seeded in 96-well plates overnight. The next day media was removed and replaced with either 100 μl media with vehicle control or media containing LCL204 at desired concentrations. Assays were carried out according to manufacturer's instruction as previously described (60). For experiments using enzyme inhibitors and LCL204, media was removed and replaced with 50 μl media containing vehicle only or indicated inhibitor. Cells were pretreated 1 hour at 37° C. before adding 50 μl media containing vehicle, inhibitor only, LCL204 only (2× concentration), or a combination. The remainder of the assay was carried out as described above.
# Stable transfections. Both CMV-TAM67 and pcDNA3 vectors were from Dr. Michael Birrer (National Cancer Institute; Rockville, Md.). PPC-1 cells (7×10^5) were transfected with 4 μg of DNA in 60 mm dishes using FuGENE6 according to the manufacturer's instructions. Stably transfected clones were selected in 400 μg/mL G418 (Sigma). TAM67 was detected by Western blot analysis using an antibody for c-Jun (Ab-1, Oncogene) as described above.
# [2] = test system: Bak; experiment: Bak protein level and Bak foci (Western blot, confocal microscopy); conditions: PPC-1 transfectants, with LCL204 7.5 μM
# Description: (§1) Immunoblot analysis. Cells were seeded in 60mm plates as described above and treated accordingly. Cells were lifted by gently scraping the plates, washed once with ice cold PBS and then lysed in lysis buffer (PBS, 1% Triton X-100, 10% glycerol) containing protease inhibitors pepstatin A (0.5 μg/ml), leupeptin (0.5 μg/ml), aprotinin (5 μg/ml), and PMSF (100 μg/ml) for 10 minutes on ice. Insoluble material was removed by centrifugation at 14,000 rpm for 15 minutes at 4° C. The supernatants were then supplemented with SDS at a final concentration of 2% and stored at −80° C. Protein concentrations were determined using the DC Protein Assay (BioRad Laboratories; Hercules, CA, USA) according to the manufacturer's instructions. 50 μg of protein per sample (unless otherwise indicated) were separated on NuPAGE 4-12% Bis-Tris gels (Invitrogen; Carlsbad, CA, USA) and transferred to nitrocellulose membranes (BioRad). Following transfer, membranes were blocked for 1 hour at room temperature in Tris-buffered saline (TBS) containing 0.1% Tween-20 and 5% nonfat dry milk and incubated overnight at 4° C. with primary antibody at a dilution of 1:2,000(actin), 1:1,000(cytochrome c, COX IV, Bax, Bak, p53, p38, P-p38), 1:500(P-JNK, JNK), 1:250 (AC, p73), or 1:400(LAMP-1, cathepsin B). Overnight incubations were performed in 5% milk in TBS-Tween. Following overnight incubation, membranes were washed three times for 10 minutes each in TBS-Tween and incubated for 1 hour at room temperature with secondary antibody in 5% milk TBS-Tween at a dilution 1:5,000 (goat anti-mouse IgG) or 1:50,000 (goat anti-rabbit). Membranes were then washed three times more and incubated for 5 minutes at room temperature with Super Signal HRP substrate (Pierce Biotechnology Inc.; Rockford, IL, USA).
# Confocal Microscopy and Immunocytochemistry. DU145 cells were grown in 4.3 cm^2 chamber slides (Nalge Nunc) and transfected with YFPmito alone or with the dominant-negative inhibitor of Drp1(K38A) (64) using FuGENE6 (Roche; Indianapolis, IN) according to the manufacturer's instructions using 1 μg of total DNA per chamber. 24 hr after transfection and 30 min prior to treatment with 15 μM LCL204, cells were exposed to zVAD-fmk (50 μM). The slides were fixed with 4% paraformaldehyde for 20 min then permeabilized with 0.2% Triton X-100 for 15 min, followed by blocking with 4% bovine serum albumin for 45 min at RT. Cells were probed with rabbit polyclonal 2-14 anti-Bak antibody (1:5000; BioChem) for 2 hr then stained with goat anti-rabbit Alexa Fluor 543 antibodies (1:250; Molecular Probes) for 45 min. After washing, cells were imaged using the 63x objective of an LSM 510 Zeiss confocal microscope.
# [3] = test system: p73; experiment: Immunoblot of p73
# Description: as §1
smiles,measurement,setting,value
"C[S+]([O-])c1ccc(-c2nc(-c3ccncc3)c(-c3ccc(F)cc3)[nH]2)cc1 (stereo not shown) [SB-203580, reference compound]",effect on LCL204 cell killing,[1],inhibited cell killing to a similar extent
same,effect of p38 MAPK inhibitor on LCL204-mediated Bak protein levels,[2],did not appear to block
same,"basal p73 levels, inhibitor alone","[3]; PPC-1/pcDNA3 and PPC-1/TAM67 cells, 5 hours",lowered basal p73 levels
same,effect of kinase inhibitor on LCL204-induced p73 induction,"[3]; PPC-1 transfectants, with LCL204 7.5 μM",blocked the LCL204-induced p73 up-regulation
